Laboratory results: publication PMC8206213, “An L-2-hydroxyglutarate biosensor based on specific transcriptional regulator LhgR” (Nature Communications, 2021)
Values joined by “and” are separate entries in the source; they are usually repeats but may differ in a detail not shown here. Equal values may be shown once.

Tests used:
[1] = system: LHGFR0N3C; test: Influence of other compounds on the response of purified LHGFR0N3C to L-2-HG; assay type: binding, Pseudomonas putida W619; settings: Suppl. Fig. 9a; L-2-HG alone or with the compound; three replicates
Description: (§1) Purified L-2-HG biosensors and different compounds were diluted by 50 mM Tris-HCl buffer (pH 7.4), mixed together in a black 96-well plate at a volume ratio of 3:1, and the fluorescence intensities were measured using an EnSight microplate reader (PerkinElmer, USA) with excitation at 430 nm, emission at 485 nm (mTFP) and 528 nm (Venus). […] The [L-2-HG], Kd, and p refer to the L-2-HG concentration, apparent dissociation constant, and Hill slope, respectively. Emission spectra were recorded at 430 nm excitation, in steps of 2 nm. Excitation spectra were recorded using emission at 550 nm, excitation from 380 to 535 nm in steps of 2 nm.

[2] = system: LHGFR0N7C; test: Specificity of purified LHGFR0N7C, emission ratio with 240 μM compounds; assay type: binding, Pseudomonas putida W619; settings: 240 μM compound
Description: as §1

[3] = system: LhgR; test: EMSA, effect of compounds on LhgR binding to the lhgO promoter region F1; design: species or system Pseudomonas putida W619; settings: 50 mM compound, 10 nM F1, 60 nM LhgR
Description: Electrophoretic mobility shift assays (EMSAs) were carried out using the DNA fragment (F1 or F2) and purified LhgR. The DNA fragments were first amplified by primer pairs F1-F/F1-R and F2-F/F2-R, respectively. Then, either fragment at a concentration of 10 nM DNA was incubated with LhgR (0–160 nM) in 20 μL EMSA binding buffer (10 mM Tris-HCl [pH 7.4], 50 mM KCl, 0.5 mM EDTA, 10% [vol/vol] glycerol, and 1 mM dithiothreitol [DTT]). The binding reactions were carried out at 30 °C for 30 min. Electrophoresis was performed on 6% native polyacrylamide gels at 4 °C and 170 V (constant voltage) for about 45 min, followed by staining with SYBR green I (TaKaRa, China) and photographing. Analysis of the interaction between lhgO promoter region (F1) and LHGFR was performed using the same procedure.
To characterize the effector of LhgR, purified LhgR was first incubated with L-lysine, 5-aminovalerate, glutarate, L-2-HG, D-2-HG, 2-KG, or succinate at 30 °C for 15 min, followed by incubation with the added DNA fragments at 30 °C for 30 min. The mixtures were subsequently subjected to electrophoresis.

[4] = system: LHGFR0N3C; test: Specificity of purified LHGFR0N3C, emission ratio with 240 μM compounds; assay type: binding, Pseudomonas putida W619; settings: 240 μM compound
Description: as §1

[5] = system: LHGFR0N7C; test: Influence of other compounds on the response of purified LHGFR0N7C to L-2-HG; assay type: binding, Pseudomonas putida W619; settings: Suppl. Fig. 9b; L-2-HG alone or with the compound; three replicates
Description: as §1

[6] = molecular target: T1, LHGFR0N7C; test: FRET titration of purified sensor with D-2-HG (10 nM to 2 mM) in 50 mM Tris-HCl pH 7.4, Venus/mTFP emission ratio (excitation 430 nm).; assay type: binding; settings: SD, n = 3; read-out: apparent Kd in response to D-2-HG
T1 construct: FRET sensor: LhgR truncated by seven C-terminal amino acids between mTFP (N-terminus) and Venus (C-terminus)
Description: Purified L-2-HG biosensors and different compounds were diluted by 50 mM Tris-HCl buffer (pH 7.4), mixed together in a black 96-well plate at a volume ratio of 3:1, and the fluorescence intensities were measured using an EnSight microplate reader (PerkinElmer, USA) with excitation at 430 nm, emission at 485 nm (mTFP) and 528 nm (Venus). The dose-response curves were fitted by OriginPro 2016 software (OriginLab) according to the following formula:1 R=Rmax+Rmin−Rmax/1+([L-2-HG]/Kd)^p where R, Rmin, and Rmax refer to the emission ratio of Venus to mTFP, ratio in the absence of L-2-HG, and ratio at saturation with L-2-HG, respectively. The [L-2-HG], Kd, and p refer to the L-2-HG concentration, apparent dissociation constant, and Hill slope, respectively. Emission spectra were recorded at 430 nm excitation, in steps of 2 nm. Excitation spectra were recorded using emission at 550 nm, excitation from 380 to 535 nm in steps of 2 nm. […]
column in the presence of only L-2-HG was used as the control. (c, d) Comparison of the […]
LHGFR0N7C (d). […]
response to D-2-HG (1.85 ± 0.91 mM; black line) than L-2-HG (7.22 ± 0.38 μM; red line). (e-j) Dose-response curves of LHGFR0N3C (e, g, and i) and LHGFR0N7C (f, h, and j) for increasing concentrations (10 nM to 2 mM) of L-2-HG were measured in the presence of 240 μM D-2-HG (e, f), 1 mM 2-KG (g, h), or 1 mM ATP (i, j). […]

[7] = system: HEK293FT cells; test: Hypoxia-induced L-2-HG production in LHGFR-expressing HEK293FT cells with or without 5 mM DMαKG; assay type: cell-based, human; settings: for L-2-HG concentration: in µM
Description: HEK293FT cells were cultured in high-glucose Dulbecco’s modified eagle medium (DMEM) supplemented with 10% (vol/vol) fetal bovine serum (FBS), 100 units mL^−1 penicillin, and 100 μg mL^−1 streptomycin (all purchased from ThermoFisher, USA), and kept at 37 °C in humidified air containing 5% CO2. For hypoxia experiments, cells were kept in a compact O2 and CO2 subchamber controller (ProOx C21, BioSpherix, USA) at 2% O2, 5% CO2, and balanced with N2 for 24 h. For the construction of LHGFR expressing cell, HEK293FT cells were plated in 24-well plates so that they reached 70-90% confluency 24 h after plating, the medium was refreshed 2 h before transfection.
The preparation of cell suspensions and the measurement of emission ratios were performed using the same procedure. The background fluorescence was subtracted at each emission wavelength.

[8] = molecular target: LhgR (Pseudomonas putida W619); test: SEC; gel filtration on Superdex 200 10/300 GL against protein mass standards, compared with SDS-PAGE; 50 mM sodium phosphate, 150 mM sodium chloride, pH 7.2

Molecule | Emission ratio [1] | Emission ratio [2] | Induction of emission ratio changes [2] | Effect on LhgR binding to the lhgO promoter region F1 [3] | Emission ratio [4] | Induction of emission ratio changes [4] | Emission ratio [5] | further results
NCCCC[C@H](N)C(=O)O [L-Lysine, L-lysine] | 2.026 and 2.06 and 2.101 | 1.692 and 1.701 and 1.71 | None | observed only in the presence of L-2-HG | 1.377 and 1.382 and 1.394 | None | 2.577 and 2.607 and 2.654 | 
O=C(O)CC[C@@H](O)C(=O)O [D-2-HG, D-2-hydroxyglutarate] |  |  |  |  |  |  |  | Kd [6]: 1.85 mM
COC(=O)CCC(=O)C(=O)OC [dimethyl-2-ketoglutarate] |  |  |  |  |  |  |  | Effect on emission ratio of LHGFR0N3C ([7]; 5 mM, hypoxic conditions, 24 h): significantly increased the emission ratio of LHGFR0N3C under hypoxic conditions
O=C(O)CCC(=O)O [Succinate, succinate] | 2.013 and 2.0132 and 2.099 | 1.718 and 1.724 and 1.726 | None | observed only in the presence of L-2-HG | 1.357 and 1.389 and 1.4025 | None | 2.581 and 2.619 and 2.616 | 
LhgR (natural protein) |  |  |  |  |  |  |  | stoichiometry N [8]: 2
COC(=O)CCC(=O)C(=O)OC [DMaKG] |  |  |  |  |  |  |  | Normalized emission ratio ([7]; 2% O2, With DMaKG, Supplementary Fig. 18e): 1.018 and 0.9342 and 1.029 and 0.9552; Normalized emission ratio ([7]; 21% O2, With DMaKG, Supplementary Fig. 18e): 1.029 and 0.993 and 1.008 and 0.9754; Normalized emission ratio ([7]; Fig. 6f, 2% O2, With DMaKG): 1.196 and 1.188 and 1.187 and 1.206; L-2-HG concentration ([7]; Fig. 6f, 2% O2, With DMaKG): 547.911 and 427.301 and 412.83 and 794.44; Normalized emission ratio ([7]; Fig. 6f, 21% O2, With DMaKG): 1.081 and 1.084 and 1.102 and 1.071; L-2-HG concentration ([7]; Fig. 6f, 21% O2, With DMaKG): 66.2807 and 68.36 and 87.5008 and 58.4114
NCCCCC(=O)O [5-Aminovalerate, 5-aminovalerate] | 2.084 and 2.019 and 2.1 | 1.703 and 1.69 and 1.7015 | None | observed only in the presence of L-2-HG | 1.403 and 1.397 and 1.408 | None | 2.625 and 2.696 and 2.709 | 
